Measurements: patent publication US9988400B2 (Genentech, Inc., priority 2013, dated 2018)

Molecular target: T1, HEK cells stably transfected with tetracycline inducible hNR1 and hNR2A (Homo sapiens, UniProt Q05586+Q12879)
T1 construct: expressed in transfected cells; host or cells: HEK cells, stably transfected, tetracycline/doxycycline inducible
Test: Assay 1: Cell-Based Assay, cytosolic calcium response to positive allosteric modulators (with 30 μM glycine and 300 nM L-glutamate, EC30)
Details: for EC50: cytosolic calcium response, with 30 μM glycine and 300 nM L-glutamate (EC30), — = no plateau was reached; for Max %: responses scaled relative to 100 μM L-glutamate maximal response (100%) and 0 μM L-glutamate (0%)
Procedure, shortened: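 Cells induced 24 h with 7.5 μg mL^−1 doxycycline plus 500 μM (+)-ketamine, loaded 60 min at 37 °C with calcium dye in Mg-free HBSS (1.8 mM Ca, probenecid, 10 μM (+)-ketamine, pH 7.15). Peak RFU over 5 min after compound addition, scaled to 100 μM L-glutamate (100%) and 0 μM (0%); four-parameter Hill fit for EC50, max % if no plateau.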

T1 sequence (Q12879 23-1464, other chains not shown): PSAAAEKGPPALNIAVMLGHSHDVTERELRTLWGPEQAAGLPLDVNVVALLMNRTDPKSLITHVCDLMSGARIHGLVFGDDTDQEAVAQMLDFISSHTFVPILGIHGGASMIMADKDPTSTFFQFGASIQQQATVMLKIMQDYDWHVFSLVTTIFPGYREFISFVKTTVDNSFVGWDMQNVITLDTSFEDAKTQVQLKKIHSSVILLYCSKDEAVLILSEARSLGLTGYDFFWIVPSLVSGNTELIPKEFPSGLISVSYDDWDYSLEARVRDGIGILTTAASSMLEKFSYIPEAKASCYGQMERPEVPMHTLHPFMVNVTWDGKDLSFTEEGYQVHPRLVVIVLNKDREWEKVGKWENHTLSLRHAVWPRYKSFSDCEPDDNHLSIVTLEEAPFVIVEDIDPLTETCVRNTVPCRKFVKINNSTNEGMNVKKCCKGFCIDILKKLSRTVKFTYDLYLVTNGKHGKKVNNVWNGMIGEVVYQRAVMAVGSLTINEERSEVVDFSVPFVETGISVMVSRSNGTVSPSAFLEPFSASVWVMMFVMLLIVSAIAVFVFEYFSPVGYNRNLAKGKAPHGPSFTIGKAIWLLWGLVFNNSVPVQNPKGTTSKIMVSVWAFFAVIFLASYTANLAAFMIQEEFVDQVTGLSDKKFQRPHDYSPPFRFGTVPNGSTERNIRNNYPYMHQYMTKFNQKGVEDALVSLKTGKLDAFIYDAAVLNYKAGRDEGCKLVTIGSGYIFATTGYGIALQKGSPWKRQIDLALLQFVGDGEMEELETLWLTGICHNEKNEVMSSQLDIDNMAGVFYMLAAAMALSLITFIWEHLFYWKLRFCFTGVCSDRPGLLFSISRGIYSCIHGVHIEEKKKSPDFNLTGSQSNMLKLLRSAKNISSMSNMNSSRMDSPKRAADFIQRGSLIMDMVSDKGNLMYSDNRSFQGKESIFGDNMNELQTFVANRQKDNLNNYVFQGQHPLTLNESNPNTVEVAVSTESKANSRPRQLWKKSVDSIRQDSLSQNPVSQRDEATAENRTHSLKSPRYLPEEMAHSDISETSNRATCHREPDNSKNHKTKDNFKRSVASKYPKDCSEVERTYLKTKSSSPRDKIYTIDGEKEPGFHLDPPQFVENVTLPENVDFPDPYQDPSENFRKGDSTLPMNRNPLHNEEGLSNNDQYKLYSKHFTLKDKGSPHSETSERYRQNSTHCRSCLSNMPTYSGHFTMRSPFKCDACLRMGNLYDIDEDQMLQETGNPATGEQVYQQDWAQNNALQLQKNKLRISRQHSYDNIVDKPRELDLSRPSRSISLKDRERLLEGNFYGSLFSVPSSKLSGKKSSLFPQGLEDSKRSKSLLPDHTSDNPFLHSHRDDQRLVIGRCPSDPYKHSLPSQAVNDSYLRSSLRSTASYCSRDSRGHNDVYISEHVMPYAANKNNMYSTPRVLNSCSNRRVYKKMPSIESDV

In the case of `Cc1sc2nc(Cn3nc(C(F)(F)F)cc3Cl)cc(=O)n2c1CS(C)(=O)=O` [compound 185, 7-[[5-chloro-3-(trifluoromethyl)pyrazol-1-yl]methyl]-2-methyl-3-(methylsulfonylmethyl)thiazolo[3,2-a]pyrimidin-5-one], the EC50 (Table 3) is reported as 17.8 µM.
In the case of `CCN(Cc1cc(=O)n2c(-c3ccn(C)n3)c(C)sc2n1)c1ccc(F)cc1` [Example 5.56, 7-[(N-ethyl-4-fluoro-anilino)methyl]-2-methyl-3-(1-methylpyrazol-3-yl)thiazolo[3,2-a]pyrimidin-5-one], the Max % (Table 2) is reported as 110%.
Work on `Cc1sc2nc(Cn3nc(Cl)cc3C(F)(F)F)cc(=O)n2c1C#N` [compound 115, 7-[[3-chloro-5-(trifluoromethyl)pyrazol-1-yl]methyl]-2-methyl-5-oxo-thiazolo[3,2-a]pyrimidine-3-carbonitrile] yielded an EC50 (Table 3) of 2.75 µM.
With `CCN(Cc1cc(=O)n2c(CN3CCC3)c(C)sc2n1)c1ccc(F)cc1` [Example 10.8, 3-(azetidin-1-ylmethyl)-7-[(N-ethyl-4-fluoro-anilino)methyl]-2-methyl-thiazolo[3,2-a]pyrimidin-5-one] the Max % (Table 2) was 63.5%.
In the case of `Cc1sc2nc(Cn3ncc4ccc(F)cc43)cc(=O)n2c1[C@@H]1C[C@H]1CO` (relative stereo) [Example 15.23, 7-[(6-fluoroindazol-1-yl)methyl]-3-[trans-2-(hydroxymethyl)cyclopropyl]-2-methyl-thiazolo[3,2-a]pyrimidin-5-one], the EC50 (Table 2) is reported as 1.9 µM and the Max % (Table 2) is reported as 143%.
With `CCNC(=O)c1c(C)sc2nc(Cc3c(CC)ccc(F)c3F)cc(=O)n12` [Example 21.63, N-ethyl-7-(6-ethyl-2,3-difluorobenzyl)-2-methyl-5-oxo-5H-thiazolo[3,2-a]pyrimidine-3-carboxamide] the Max % (Table 2) was 124%.
In the case of `Cc1sc2nc(Cn3nc(C)c4cc(F)ccc43)cc(=O)n2c1C(C)O` (centres unmarked) [Example 18.5, 7-((5-fluoro-3-methyl-1H-indazol-1-yl)methyl)-3-(1-hydroxyethyl)-2-methyl-5H-thiazolo[3,2-a]pyrimidin-5-one], the Max % (Table 2) is reported as 40.7%.
For `Cc1sc2nc(Cc3cccc(C#N)c3F)cc(=O)n2c1C1CC1C` (centres unmarked) [compound 10, 2-fluoro-3-[[2-methyl-3-(2-methylcyclopropyl)-5-oxo-thiazolo[3,2-a]pyrimidin-7-yl]methyl]benzonitrile], the EC50 (Table 3) was 0.471 µM.
With `CC[C@@H](C)NC(=O)c1c(C)sc2nc(Cc3cccc(C(F)(F)F)c3F)cc(=O)n12` [compound 179, 7-[[2-fluoro-3-(trifluoromethyl)phenyl]methyl]-2-methyl-N-[(1R)-1-methylpropyl]-5-oxo-thiazolo[3,2-a]pyrimidine-3-carboxamide] the EC50 (Table 3) was 0.698 µM.
For `CCNC(=O)c1c(C(F)(F)F)sc2nc(CN(C)c3ccc(F)cn3)cc(=O)n12` [compound 230, N-ethyl-7-[[(5-fluoro-2-pyridyl)-methyl-amino]methyl]-5-oxo-2-(trifluoromethyl)thiazolo[3,2-a]pyrimidine-3-carboxamide], the EC50 (Table 3) was 6.86 µM.
Work on `CCNC(=O)c1c(C)sc2nc(Cc3cccc(Cl)c3F)cc(=O)n12` [Example 21.3, 7-(3-chloro-2-fluorobenzyl)-N-ethyl-2-methyl-5-oxo-5H-thiazolo[3,2-a]pyrimidine-3-carboxamide] yielded an EC50 (Table 2) of 7.6 µM and a Max % (Table 2) of 131%.
Work on `Cc1sc2nc(COc3ccc(F)cc3)cc(=O)n2c1C(=O)C1CC1` [Example 2.7, 3-Cyclopropanecarbonyl-7-(4-fluorophenoxymethyl)-2-methyl-5H-[1,3]thiazolo[3,2-a]pyrimidin-5-one] yielded an EC50 (Table 2) of 26 µM and a Max % (Table 2) of 61.3%.
Compound `CNC(=O)c1c(C)sc2nc(Cc3ccc4c(c3)CC4)cc(=O)n12` [compound 32, 7-(4-bicyclo[4.2.0]octa-1,3,5-trienylmethyl)-N,2-dimethyl-5-oxo-thiazolo[3,2-a]pyrimidine-3-carboxamide] has an EC50 (Table 3) of 5.95 µM.
`N#CC1CC1c1c(C(F)(F)F)sc2nc(Cn3nc(C(F)(F)F)cc3Cl)cc(=O)n12` (single isomer, unassigned) [compound 207] gave an EC50 (Table 3) of 0.0074 µM.
